Nine compounds from patent US20240158438A1, “POLYPEPTIDE COMPOUND AND APPLICATION THEREOF” (CHENGDU SINTANOVO BIOTECHNOLOGY CO., LTD., priority 2021, published 2024) can be followed below.

pIC50: −log10 of the molar value. Starred links: 1 amine or outer side, 2 acyl side, 3 side chain; linkers in the order of their positions; H or OH if unused. Non-standard residues stand in square brackets, D forms with d. Residues, ends and D or L forms follow the SMILES beside them. *: point of attachment. Azetidine3carboxylic = O=C(C1CN([*:1])C1)[*:2]; Pyrrolidine3carbonyl(3S) = O=C([C@H]1CCNC1)*; dBta = N[C@H](Cc1csc2ccccc12)C(=O)O; Ac4c(3-oxa) = NC1(C(=O)O)COC1; Tle = CC(C)(C)[C@H](N)C(=O)O; dAbu = CC[C@@H](N)C(=O)O; Api = NC1(C(=O)O)CCNCC1; X3 = NCC1(C(=O)*)CCC1

One data set has as its target GHSR-1a (Homo sapiens (Human), UniProt Q92847). Description: Agonistic activity for GHSR-1a, FLIPR calcium assay. The data set is classed as cell-based. As to conditions: agonist activity assay, Flp In-CHO-GHSR Stable Pool cells, FLIPR calcium 6 kit; read-out: The activity (IC50) of polypeptide compounds for GHSR-1a.
Another data set concerns the target CYP1A2 (Homo sapiens (Human), UniProt P05177). Description: in vitro. The data set is classed as in vitro ADME. The settings on record: microsomes; for pIC50: 10 min. On the procedure: (§1) Human liver microsomes containing cytochrome P450 (0.253 mg/mL protein) were incubated with test compounds (0.05-50 μM), CYPs substrates (10 μM […], 5 μM diclofenac, 30 μM mephenytoin, 5 μM dextromethorphan hydrobromide and 2 μM midazolam) and 1.0 mM NADP at 37° C. for 10 min. Naphthoflavone, sulfaphenazole, N-3-benzylnirvanol, quinidine and ketoconazole were used as reference inhibitors.

The target in a further data set is CYP 2C9 (Homo sapiens (Human), UniProt P11712). The data set is classed as in vitro ADME. The settings on record: microsomes, 10 min. On the procedure:
as §1

Another data set addresses CYP 2D6 (Homo sapiens (Human), UniProt P10635). The data set is classed as in vitro ADME. As to conditions: microsomes, 10 min. As to the method:
as §1

The target of a further data set is CYP 3A4 (Homo sapiens (Human), UniProt P08684). It is filed as in vitro ADME. The settings on record: microsomes, 10 min. As to the method:
as §1

The next data set addresses CYP 2C19 (Homo sapiens (Human), UniProt P33261). It is filed as in vitro ADME. The settings on record: microsomes, 10 min. As to the method: as §1

CYP 3A4, sequence (P08684 whole entry): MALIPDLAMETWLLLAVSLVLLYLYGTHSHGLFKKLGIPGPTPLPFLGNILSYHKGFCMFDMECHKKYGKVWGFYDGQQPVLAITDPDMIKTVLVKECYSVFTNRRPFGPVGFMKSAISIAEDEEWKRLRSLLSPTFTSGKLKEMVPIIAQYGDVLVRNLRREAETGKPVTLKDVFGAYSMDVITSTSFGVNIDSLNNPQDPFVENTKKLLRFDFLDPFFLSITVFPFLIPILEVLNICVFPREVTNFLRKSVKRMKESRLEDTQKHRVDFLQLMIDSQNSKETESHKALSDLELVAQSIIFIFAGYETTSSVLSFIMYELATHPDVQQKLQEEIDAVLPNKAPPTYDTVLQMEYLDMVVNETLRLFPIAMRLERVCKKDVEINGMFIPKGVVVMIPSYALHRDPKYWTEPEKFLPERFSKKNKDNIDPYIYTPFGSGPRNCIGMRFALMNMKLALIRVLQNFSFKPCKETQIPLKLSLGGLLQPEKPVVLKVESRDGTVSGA
CYP 2D6, sequence (P10635 whole entry): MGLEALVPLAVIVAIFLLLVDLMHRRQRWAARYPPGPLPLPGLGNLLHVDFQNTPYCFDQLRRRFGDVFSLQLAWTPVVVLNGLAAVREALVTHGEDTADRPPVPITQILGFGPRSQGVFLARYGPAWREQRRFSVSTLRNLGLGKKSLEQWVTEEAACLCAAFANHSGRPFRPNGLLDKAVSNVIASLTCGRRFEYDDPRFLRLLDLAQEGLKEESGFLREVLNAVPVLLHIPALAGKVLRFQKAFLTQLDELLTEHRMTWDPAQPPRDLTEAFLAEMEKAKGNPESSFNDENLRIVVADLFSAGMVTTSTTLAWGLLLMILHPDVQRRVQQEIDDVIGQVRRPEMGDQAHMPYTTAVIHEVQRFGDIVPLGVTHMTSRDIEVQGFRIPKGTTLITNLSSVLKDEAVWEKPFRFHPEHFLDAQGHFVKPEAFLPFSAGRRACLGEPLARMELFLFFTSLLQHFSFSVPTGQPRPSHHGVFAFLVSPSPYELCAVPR
GHSR-1a, sequence (Q92847 whole entry): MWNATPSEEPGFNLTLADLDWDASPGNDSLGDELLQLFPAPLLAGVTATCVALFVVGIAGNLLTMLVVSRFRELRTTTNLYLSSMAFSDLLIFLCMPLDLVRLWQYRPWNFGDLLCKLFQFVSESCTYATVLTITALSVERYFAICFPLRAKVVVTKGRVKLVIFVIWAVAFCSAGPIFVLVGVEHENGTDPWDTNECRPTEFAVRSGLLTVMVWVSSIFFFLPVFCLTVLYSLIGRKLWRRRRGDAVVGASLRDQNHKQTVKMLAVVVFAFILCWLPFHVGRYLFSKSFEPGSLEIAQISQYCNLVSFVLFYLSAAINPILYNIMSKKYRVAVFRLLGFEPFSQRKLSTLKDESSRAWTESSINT
CYP 2C19, sequence (P33261 whole entry): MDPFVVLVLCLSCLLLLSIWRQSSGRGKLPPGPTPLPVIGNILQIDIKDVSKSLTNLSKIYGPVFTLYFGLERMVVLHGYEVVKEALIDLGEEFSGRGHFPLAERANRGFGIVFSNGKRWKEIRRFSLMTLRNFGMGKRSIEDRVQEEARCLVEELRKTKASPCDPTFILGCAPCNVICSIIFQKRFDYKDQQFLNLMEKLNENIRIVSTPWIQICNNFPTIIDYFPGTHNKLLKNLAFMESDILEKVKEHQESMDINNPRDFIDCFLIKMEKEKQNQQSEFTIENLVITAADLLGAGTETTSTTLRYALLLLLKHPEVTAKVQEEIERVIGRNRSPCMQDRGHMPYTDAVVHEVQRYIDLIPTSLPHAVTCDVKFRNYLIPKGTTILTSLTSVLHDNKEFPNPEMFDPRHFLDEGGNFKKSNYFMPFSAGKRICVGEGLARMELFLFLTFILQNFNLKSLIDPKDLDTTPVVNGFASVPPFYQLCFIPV
CYP 2C9, sequence (P11712 whole entry): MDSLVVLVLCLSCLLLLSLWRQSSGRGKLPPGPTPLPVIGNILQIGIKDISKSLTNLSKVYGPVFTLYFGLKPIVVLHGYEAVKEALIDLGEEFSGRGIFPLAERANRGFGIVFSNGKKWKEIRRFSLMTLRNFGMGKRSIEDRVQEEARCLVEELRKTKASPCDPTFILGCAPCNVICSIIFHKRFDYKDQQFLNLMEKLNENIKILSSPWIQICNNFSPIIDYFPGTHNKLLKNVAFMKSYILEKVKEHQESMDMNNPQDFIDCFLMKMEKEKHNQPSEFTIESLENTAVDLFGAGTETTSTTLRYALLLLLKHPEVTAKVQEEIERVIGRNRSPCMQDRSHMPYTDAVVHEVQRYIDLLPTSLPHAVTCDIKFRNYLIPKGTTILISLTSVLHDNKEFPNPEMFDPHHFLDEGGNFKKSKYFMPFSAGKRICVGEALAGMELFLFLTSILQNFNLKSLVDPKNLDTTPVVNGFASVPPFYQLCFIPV
CYP1A2, sequence (P05177 whole entry): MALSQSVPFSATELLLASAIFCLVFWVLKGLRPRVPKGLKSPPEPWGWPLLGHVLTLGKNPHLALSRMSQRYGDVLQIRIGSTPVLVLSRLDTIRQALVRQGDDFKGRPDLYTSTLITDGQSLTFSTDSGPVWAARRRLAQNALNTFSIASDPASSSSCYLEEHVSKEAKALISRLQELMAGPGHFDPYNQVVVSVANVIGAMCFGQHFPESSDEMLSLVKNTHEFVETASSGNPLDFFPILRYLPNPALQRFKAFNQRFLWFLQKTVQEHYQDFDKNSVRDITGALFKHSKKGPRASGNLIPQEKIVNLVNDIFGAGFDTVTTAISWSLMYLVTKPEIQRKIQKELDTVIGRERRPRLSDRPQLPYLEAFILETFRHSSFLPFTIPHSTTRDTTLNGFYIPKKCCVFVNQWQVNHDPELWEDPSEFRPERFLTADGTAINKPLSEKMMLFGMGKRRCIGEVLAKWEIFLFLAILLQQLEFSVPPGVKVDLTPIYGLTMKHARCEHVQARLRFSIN

One may read the pIC50 as the IC50 on a negative log10 scale, so that one unit is a factor of ten. Regarding `CC[C@@H](N)C(=O)N[C@H](Cc1csc2ccccc12)C(=O)N[C@H](Cc1c[nH]c2ccccc12)C(=O)N[C@@H](Cc1ccccc1)C(=O)N[C@H](CCCCN)C(N)=O` [Compound 32] (H-[dAbu][dBta][dW]F[dK]-NH2), the pIC50 on GHSR-1a was 8.62; against CYP1A2, below 4.30; on CYP 2C9 it was below 4.30; against CYP 2D6 it was 4.61; against CYP 3A4 it was 5.59; on CYP 2C19, below 4.30.
As to `NC(=O)C1(NC(=O)[C@H](Cc2ccccc2)NC(=O)[C@@H](Cc2c[nH]c3ccccc23)NC(=O)[C@@H](Cc2csc3ccccc23)NC(=O)C2CNC2)CCNCC1` [Compound 23] (Azetidine3carboxylic-[dBta][dW]F[Api]-NH2), the pIC50 was 8.48 at GHSR-1a; below 4.30 against CYP1A2; below 4.30 at CYP 2C9; below 4.30 at CYP 2D6; below 4.30 at CYP 3A4; below 4.30 against CYP 2C19.
By IC50 is commonly meant the concentration at which inhibition is half-maximal. Low readings indicate higher potency, high ones lower potency. In the case of `NC(=O)[C@H](Cc1ccccc1)NC(=O)[C@@H](Cc1c[nH]c2ccccc12)NC(=O)[C@@H](Cc1csc2ccccc12)NC(=O)[C@H]1CNCCO1` [Compound 77], the pIC50 at GHSR-1a was 7.87; against CYP 2C9 it was below 4.30; at CYP 2D6, below 4.30; on CYP 3A4, below 4.30; at CYP 2C19 it was below 4.30. The IC50 at 10 min at CYP1A2 was above 50 µM.
Turning to `NC(=O)[C@H](Cc1ccccc1)NC(=O)[C@@H](Cc1c[nH]c2ccccc12)NC(=O)[C@@H](Cc1csc2ccccc12)NC(=O)[C@H]1CCNC1` [Compound 76], the negative-log IC50 (pIC50) at GHSR-1a is 8.41; on CYP 2C9 it was below 4.30; on CYP 2D6 it was below 4.30; at CYP 3A4, below 4.30; at CYP 2C19, below 4.30. The IC50 at 10 min at CYP1A2 was above 50 µM.
As to `NC(=O)C1(NC(=O)[C@H](Cc2ccccc2)NC(=O)[C@@H](Cc2c[nH]c3ccccc23)NC(=O)[C@@H](Cc2csc3ccccc23)NC(=O)C2(N)COC2)CCNCC1` [Compound 24] (H-[Ac4c(3-oxa)][dBta][dW]F[Api]-NH2), the pIC50 at GHSR-1a was 8.27; at CYP1A2 it was below 4.30; on CYP 2C9, below 4.30; against CYP 2D6, below 4.30; at CYP 3A4 it was below 4.30; at CYP 2C19, below 4.30.
On to `NCCCC[C@@H](NC(=O)[C@H](Cc1ccccc1)NC(=O)[C@@H](Cc1c[nH]c2ccccc12)NC(=O)[C@@H](Cc1csc2ccccc12)NC(=O)C1(CN)CCC1)C(N)=O` [Compound 52] (X3-[dBta][dW]F[dK]-NH2), for which the pIC50 at GHSR-1a is 8.42; against CYP1A2 it was below 4.30; against CYP 2C9, below 4.30; against CYP 2D6 it was below 4.30; against CYP 3A4 it was below 4.30; at CYP 2C19, below 4.30.
As to `CC(C)C[C@@H](N)C(=O)N[C@H](Cc1csc2ccccc12)C(=O)N[C@H](Cc1c[nH]c2ccccc12)C(=O)N[C@@H](Cc1ccccc1)C(=O)NC1(C(N)=O)CCNCC1` [Compound 14] (H-[dL][dBta][dW]F[Api]-NH2), the pIC50 on GHSR-1a is 7.48; on CYP1A2, below 4.30; against CYP 2C9 it was below 4.30; against CYP 2D6, below 4.30; against CYP 3A4, below 4.30; at CYP 2C19, below 4.30.
On to `NCCCC[C@@H](NC(=O)[C@H](Cc1ccccc1)NC(=O)[C@@H](Cc1c[nH]c2ccccc12)NC(=O)[C@@H](Cc1csc2ccccc12)NC(=O)[C@H]1CCNC1)C(N)=O` [Compound 56] ({Pyrrolidine3carbonyl(3S)}-[dBta][dW]F[dK]-NH2), for which the negative-log IC50 (pIC50) was 8.26 on GHSR-1a; below 4.30 against CYP1A2; below 4.30 against CYP 2C9; below 4.30 at CYP 2D6; below 4.30 at CYP 3A4; below 4.30 at CYP 2C19.
For `CC(C)(C)[C@H](N)C(=O)N[C@H](Cc1csc2ccccc12)C(=O)N[C@H](Cc1c[nH]c2ccccc12)C(=O)N[C@@H](Cc1ccccc1)C(=O)N[C@H](CCCCN)C(N)=O` [Compound 48] (H-[Tle][dBta][dW]F[dK]-NH2), the pIC50 was 7.92 on GHSR-1a; below 4.30 against CYP1A2; below 4.30 against CYP 2C9; below 4.30 at CYP 2D6; below 4.30 on CYP 3A4; below 4.30 on CYP 2C19.
